Measured values from ChEMBL document CHEMBL4229373, “A comprehensive review of chalcone derivatives as antileishmanial agents” (Eur J Med Chem, 2018).
Values after ≈ are worked out from the molar mass of the structure shown. One block for each molecule: values may come before it.

Legend:
Leishmania donovani [1] = assay: Antileishmanial activity against DsRed-positive Leishmania donovani Dd8 amastigotes infected in mouse J774A1 cells after 48 hrs by flow cytometry; assay type: functional, organism-based; settings: Dd8, J774.A1, 48 h
Leishmania donovani [2] = assay: Antileishmanial activity against Leishmania donovani L82 amastigotes infected in CD1 mouse peritoneal macrophages after 5 days by Giemsa staining based microscopic method; assay type: functional; settings: L82, 120 h, read-out: ED50 (the source's name)
Leishmania panamensis = assay: Antileishmanial activity against GFP fused Leishmania panamensis MHOM/CO/87/UA140 amastigotes infected in human […] cells after 72 hrs by flow cytometry; assay type: functional, organism-based; settings: MHOM/CO/87/UA140, 72 h
Leishmania amazonensis [3] = assay: Antileishmanial activity against Leishmania amazonensis LV/79 (MPRO/BR/72/M 1841) amastigotes infected in Balb/c mouse macrophages after 48 hrs by Giemsa staining based light microscopic method; assay type: functional; settings: read-out: ED50 (the source's name)
Leishmania donovani [4] = assay: Antileishmanial activity against Leishmania donovani MHOM/SD/00/1SD2D […] amastigotes infected in human peripheral blood monocyte-derived macrophages after 48 hrs by [3H]-thymidine incorporation assay; assay type: functional, organism-based
Leishmania amazonensis [5] = assay: Antileishmanial activity against Leishmania amazonensis MHOM/BR/76/LTB-012 axenic amastigotes after 72 hrs by MTT dye based assay; assay type: functional, organism-based; settings: MHOM/BR/76/LTB-012, 72 h
Leishmania major = assay: Antileishmanial activity against Leishmania major amastigotes infected in human peripheral blood monocyte-derived macrophages; assay type: functional, organism-based
Leishmania amazonensis [6] = assay: Antileishmanial activity against Leishmania amazonensis MHOM/BR/75/M-2904 strain Lb2904 amastigotes infected in mouse J774A1 cells after 48 hrs by Giemsa staining based microscopic method; assay type: functional, organism-based; settings: MHOM/BR/75/M-2904 Lb290, J774.A1, 48 h
Leishmania donovani [7] = assay: Antileishmanial activity against Leishmania donovani amastigotes; assay type: functional, organism-based
Leishmania amazonensis [8] = assay: Antileishmanial activity against Leishmania amazonensis MHOM/BR/76/LTB-012 axenic amastigotes; assay type: functional, organism-based

- IC50 (Leishmania donovani [1]): 14 µM
Compound: CC(=O)c1sc(N/N=C/c2cccc(/C=C/C(=O)c3ccco3)c2)nc1C

- EC50 (Leishmania donovani [2]): 1.38 µM
Compound: O=C(/C=C/c1ccc2ccccc2c1)c1ccc(O)cc1

- IC50 (Leishmania panamensis): 13.5 µg/mL (≈ 21 µM)
Compound: COc1ccc(/C=C/C(=O)c2ccc(OCCCCCOc3cc(Cl)ccc3Oc3ccc(Cl)cc3Cl)cc2)cc1OC

- EC50 (Leishmania donovani [2]): 1.5 µM
Compound: COc1ccc(C(=O)/C=C/c2cnc3ccccc3c2)c(OC)c1

- EC50 (Leishmania amazonensis [3]): 24 µg/mL (≈ 88.8 µM)
Compound: COc1cc(O)c(C(=O)/C=C/c2ccccc2)c(O)c1

- EC50 (Leishmania donovani [2]): 1.48 µM
Compound: O=C(/C=C/c1ccccn1)c1ccc(O)cc1

- IC50 (Leishmania donovani [4]): 0.42 µM
Compound: C=CCOc1ccc(C(=O)/C=C/c2ccc(OC)c(OC)c2)cc1

- IC50 (Leishmania panamensis): 0.79 µg/mL (≈ 1.88 µM)
Compound: O=C(/C=C/c1cccc(Nc2ccnc3cc(Cl)ccc23)c1)c1ccc(Cl)cc1

- IC50 (Leishmania panamensis): 6.24 µg/mL (≈ 12.9 µM)
Compound: COc1ccc(/C=C/C(=O)c2ccc(OCCCCOc3cccc4cccnc34)cc2)cc1OC

Compound: COc1cc(O)cc(O)c1C(=O)/C=C/c1ccccc1 [CARDAMOMIN]
- IC50 (Leishmania amazonensis [5]): 8 µM

- IC50 (Leishmania major): 0.5 µg/mL (≈ 1.48 µM)
Compound: C=CC(C)(C)c1cc(/C=C/C(=O)c2ccc(O)cc2)c(OC)cc1O [LICOAGROCHACONE A]

- IC50 (Leishmania amazonensis [6]): > 30 µM
Compound: COc1ccc(/C=C/C(=O)c2ccccc2)cc1 [4-METHOXY CHALCONE]

Compound: COc1cc(OC)c(C(=O)/C=C/c2ccccc2)c(O)c1OC
- IC50 (Leishmania amazonensis [5]): 0.8 µM

- IC50 (Leishmania donovani [4]): 0.65 µM
Compound: C=CCOc1ccc(C(=O)/C=C/c2cccc(OC)c2OC)cc1

- IC50 (Leishmania panamensis): 10.2 µg/mL (≈ 16.2 µM)
Compound: COc1ccc(/C=C/C(=O)c2ccc(OCCCCOc3cc(Cl)ccc3Oc3ccc(Cl)cc3Cl)cc2)cc1OC

- IC50 (Leishmania panamensis): 0.88 µg/mL (≈ 1.9 µM)
Compound: O=C(/C=C/c1cccc(Nc2ccnc3cc(Cl)ccc23)c1)c1ccc(Br)cc1

- IC50 (Leishmania panamensis): 9.4 µg/mL (≈ 15.3 µM)
Compound: COc1ccc(/C=C/C(=O)c2ccc(OCCCOc3cc(Cl)ccc3Oc3ccc(Cl)cc3Cl)cc2)cc1OC

- IC50 (Leishmania donovani [7]): 0.95 µM
Compound: COc1ccc(OC)c(C(=O)/C=C/c2ccccn2)c1

- IC50 (Leishmania amazonensis [8]): 61.4 µM
Compound: COc1cc(O)c(C(=O)/C=C/c2ccc(O)cc2)c(O)c1

- IC50 (Leishmania amazonensis [6]): 2 µM
Compound: O=C(/C=C/c1cccc(S(=O)(=O)Nc2ccccc2)c1)c1ccccc1
